From patent US9839690B2, “Singlet oxygen-labile linkers and methods of production and use thereof” (The Board of Regents of the University of Oklahoma, priority 2012, dated 2017)

Experiments:
[1] = Photooxygenation kinetics (DPBF fluorescence, Rose Bengal, Stern-Volmer analysis); assay type: physicochemical; settings: acetone, 15° C., 540±10 nm
Method: Fluorescence emission was used to monitor the disappearance of 1,3-diphenylisobenzofuran (DPBF) which was recorded on a LS 50 B luminescence spectrometer (Perkin Elmer, USA). DPBF (5×10^−2 M) and Rose Bengal (0.5×10^−5 M) stock solution in dry acetone was prepared. In addition, varying known concentrations of 2,3-dimethylbutene, (E)-N-phenyl-3-(piperidin-1-yl)acrylamide (a model compound with aminoacrylate linker) and Combretastatin A-4 (CA-4) were freshly prepared. Using a tungsten-halogen light source filtered at 540±10 nm (Lumacare), the appropriate solution of DPBF-Rose Bengal with or without a substrate placed in a fluorescence cuvette and held in a thermostated cell at 15° C. with stirring was irradiated with 0.1 mW/cm^2 light intensity at 30 sec interval. The fluorescence intensity of DPBF at 455 nm as a function of time provided the rate of photooxygenation of DPBF. […] As such, the reaction kinetics could be determined in light of the following analysis.
Using the above kinetic analysis and equation (5), the second order rate constant (k) of the aminoacrylate linker was experimentally determined to be 2.5×10^7 M^−1s^−1, wherein k=kr+kq
Then, β value was calculated from the plot of S0/Sx vs. [A]. […] From the kd value of the solvent (kd of acetone=38,400 s^−1), β value of A was calculated. […]

[2] = 1H-NMR of drugs and model linker compound with CMP-OMe before and after irradiation; assay type: physicochemical
Description: The cleavage of aminoacrylate linkers after irradiation was supported by the increased coumarin fluorescence of 9 by irradiation (FIGS. 14-21). The unique peak of each compound was integrated against the peak of CMP-OMe (four protons of CMP-OMe at 9.7 ppm, FIG. 14), which was known to be inert to singlet oxygen oxidation. […] However, we observed 77% decrease of the proton peak of the aminoacrylate linker after the irradiation (FIG. 21). […] PD 9 had negligible coumarin emission compared to that of free coumarin at the equimolar concentration. In the presence of 10 μM of 9, MCF-7 cells were incubated for 24 h to activate dPS. Then, the samples were irradiated by visible light (540±10 nm, 8 mW/cm^2, 30 min). […] The released free coumarin was also detected and quantified by HPLC based on the standard curve of free coumarin. As such, almost 99% of 9 released coumarin while only 64% of dPS of 9 were activated when irradiated.

[3] = biological target: T1, tubulin (Sus scrofa, UniProt P02554); assay: Fluorescence-based tubulin polymerization assay; assay type: biochemical
T1 construct: purchased Cytoskeleton, Inc. BK011P
Method: Paclitaxel and CA4 were used as positive control drugs (a polymerization enhancer and an inhibitor, respectively) in addition to the negative control group (FIG. 32).
The fluorescence-based tubulin polymerization was determined by using a kit supplied by Cytoskeleton, Inc. (cat #=BK011P). Its basic principle is that the fluorescence reporter increases as it is incorporated into microtubules during the course of polymerization. The assay was performed following the experimental procedure as described in version 2.1 of the tubulin polymerization assay kit manual. Briefly, the test drug (final concentration=3 μM) was added to a mixture of tubulin and GTP in a buffer solution, and the reaction mixture was incubated at 37° C. Fluorescence was monitored (excitation=360 nm and emission=450 nm) by using a fluorescence plate reader (SpectraMax Gemini EM, Molecular device). Paclitaxel and CA4 were included in the assay as positive controls in addition to the negative control (vehicle only).

[4] = system: MCF-7 cells; assay: Dark toxicity, MTT (Example 5); assay type: cell-based; settings: Homo sapiens, MCF7, 72 h; MCF-7, dark, 3 days; read-out: IC50D (dark toxicity)
Method: It seemed that the bulky groups, CMP-L and CMP-NCL, reduced the cytotoxic activity of CA4, presumably through the interference of its binding to tubulin as estimated by the modeling study.
MCF-7 cells were maintained in minimum essential medium (α-MEM) supplemented with 10% bovine growth serum, 2 mM L-glutamine, 50 units/mL penicillin G, 50 μg/mL streptomycin and 1.0 μg/mL fungizone. MCF-7 cells (5,000 cells/well) were seeded on 96-well plates in the medium and then incubated for 24 h at 37° C. in 5% CO2. Stock solutions (2 mM) were prepared in DMSO. The stocks were further diluted with medium to get necessary final concentrations. The diluted solution (10 μL) was then added to each well (190 μL). The plates were incubated for 24 h and then removed from the incubator. For the phototoxicity study: The plate without a cover was placed on an orbital shaker (Lab-line, Barnstead International) and irradiated by using a diode laser (690 nm, 5.6 mW/cm^2) for 30 min. To ensure uniformity of the light during the irradiation, each plate was shaken gently on an orbital shaker. For the dark toxicity study: Plates were kept in the dark for 30 min, and then returned to the incubator. Cell viability was determined after 3 days by using the MTT assay. Briefly, a 10 μL solution of MTT (10 mg in 1 mL PBS buffer) was added to each well and the plate was incubated for 4 h. Then, the MTT solution was removed and the cells were dissolved in 200 μL of DMSO and the absorbance within each well was measured at 570 nm with background subtraction at 650 nm. The cell viability was then quantified by measuring the absorbance of the treated wells compared to that of the untreated wells (controls) and expressed as a percentage.

[5] = system: colon 26 cells; assay: Antitumor efficacy study, s.c. colon 26 tumors; assay type: in vivo, BALB/c mice; settings: similar dose, pilot studies
Method: The antitumor effects of the prodrugs after irradiation were evaluated by using a mouse tumor model: BALB/c mice having s.c. tumors produced by injection of colon 26 cells. After 1.5 h-post i.p. injection of prodrugs, each tumor was irradiated by 690 nm diode laser (360 J/cm^2=200 mW/cm^2 for 30 min) on days 0, 1 and 2. The treatment conditions were determined from pilot studies although those conditions might not have been the optimal conditions.
Four- to six-week-old BALB/c mice (18-20 g, Charles River Laboratories, Inc.) were used for the murine tumor model. The mice were implanted s.c. with 2×10^6 colon 26 cells in PBS (100 μL) on the lower back-neck region. Tumor growth was monitored with digital caliper. Two dimensions l and w (l: the longest axis of tumor and w: the axis perpendicular to l) were used to calculate tumor volume (lw^2/2). Mice with a tumor of the diameter 3-5 mm were used for the experiments.
Samples were filtered using 0.2 μm sterile syringe filter. To each mouse, 200 μL of sample was injected via i.p. once a day on day 0, 1, and 2. Then, 1 h 30 min later mice were anesthetized with ketamine 80 mgkg^−1 and xylazine 6 mgkg^−1, i.p. injection. Tumors were irradiated with a 690 nm diode laser at 200 mW/cm^2 for 30 min (360 J/cm^2). Tumor size was measured with the digital caliper every day after the treatment.

[6] = system: MCF-7 cells; assay: Dark toxicity, MTT cell viability (Example 4); assay type: cell-based; settings: Homo sapiens, MCF7, light or radiation study; MCF-7, 96 hr, no irradiation
Method: MCF-7 cells (5,000 cells/well) were seeded in 96 well plates. After the plates were incubated for 24 hr, the culture medium was aspirated and the cells were washed with cold PBS (100 μL) once. Then, prodrug in the 200 μL culture media was added to cells. The final concentrations ranging from 1 nM to 1 μM were used to perform concentration dependent cell viability and 25 nM prodrug was used to perform time dependent drug release study. After 96 hr incubation, the cell viability was determined by MTT assay detailed below. The experiments were performed in triplicate. IC50 values were calculated with GraphPad Prism 5.
Cell viability was assessed by MIT assay.^89 In brief, after thoroughly washing the cells 2× with PBS buffer, the cells were treated with 200 μL 0.5 mg/mL MIT (3-(4,5-dimethylthiazol-2-yl)-2,5-diphenyltetrazolium bromide, a yellow tetrazole). Subsequently, the cells were incubated at 37° C. under a humidified atmosphere of 5% CO2 for 4 h. After 4 h of incubation, the solution from each well was taken out, and washed with PBS one time and added 100 μL DMSO. The plates were shaken at room temperature for 10 min and read immediately at 570 nm on a microplate reader (Spectra max, Molecular devices). Cell viability (%) was expressed as a ratio of treated cells to control cells.

T1 sequence (P02554 whole entry): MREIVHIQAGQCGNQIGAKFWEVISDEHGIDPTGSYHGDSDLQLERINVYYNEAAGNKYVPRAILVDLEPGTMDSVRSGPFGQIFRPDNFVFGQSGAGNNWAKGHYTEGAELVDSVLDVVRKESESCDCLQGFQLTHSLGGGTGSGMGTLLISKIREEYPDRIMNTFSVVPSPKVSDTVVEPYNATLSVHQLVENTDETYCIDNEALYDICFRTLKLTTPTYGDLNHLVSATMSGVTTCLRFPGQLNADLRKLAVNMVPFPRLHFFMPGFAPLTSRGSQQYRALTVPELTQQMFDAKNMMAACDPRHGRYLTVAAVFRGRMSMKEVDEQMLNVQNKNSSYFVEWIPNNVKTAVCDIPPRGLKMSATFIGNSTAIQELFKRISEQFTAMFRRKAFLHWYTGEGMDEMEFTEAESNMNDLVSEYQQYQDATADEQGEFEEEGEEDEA
T1 sequence (P02550 whole entry partner): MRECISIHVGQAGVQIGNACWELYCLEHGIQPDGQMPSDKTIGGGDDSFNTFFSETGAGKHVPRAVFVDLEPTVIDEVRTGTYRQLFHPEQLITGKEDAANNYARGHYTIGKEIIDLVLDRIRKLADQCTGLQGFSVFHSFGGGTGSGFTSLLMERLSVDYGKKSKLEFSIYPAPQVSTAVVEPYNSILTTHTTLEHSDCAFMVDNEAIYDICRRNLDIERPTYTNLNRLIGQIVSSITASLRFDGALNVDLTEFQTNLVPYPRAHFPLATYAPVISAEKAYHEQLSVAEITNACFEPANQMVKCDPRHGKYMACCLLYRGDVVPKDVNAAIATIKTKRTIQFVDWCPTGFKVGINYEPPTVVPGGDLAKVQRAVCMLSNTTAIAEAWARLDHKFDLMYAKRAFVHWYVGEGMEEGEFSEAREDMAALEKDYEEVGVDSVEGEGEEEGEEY

Compound	Second order rate constant (k = kr+kq) with singlet oxygen [1] [M⁻¹ s⁻¹]	Decrease of the proton peak after irradiation ([2]; CDCl3, 1H-NMR) [%]	Pattern of kinetic trace of tubulin polymerization ([3]; 3 μM)	inhibition at 3 µM ([3]; read-out: Inhibition of tubulin polymerization) [%]	Oxidation under the irradiation condition ([2]; 1H-NMR)	IC50 [4] [nM]	Significant tumor growth delay by CA4 itself [5]	IC50 [6] [nM]
O=C(/C=C/N1CCCCC1)Nc1ccccc1 [Compound 9 (Example 3), (E)-N-Phenyl-3-(piperidin-1-yl)acrylamide]	2.5e+07	77						
COc1ccc(/C=C\c2cc(OC)c(OC)c(OC)c2)cc1O [CA-4, Combretastatin A-4]			inhibitor	100	not oxidized at all	9	not seen	8
